These results are taken from patent US20130131029A1, “ANTISOLVENT SOLIDIFICATION PROCESS” (MSD Oss B.V., priority 2005, published 2013).

Series [1] can be described thus: Crystal size distribution (CSD) by laser diffraction (Mastersizer 2000, Fraunhofer model). The series is classed as physicochemical.
Experiment in series [2]: as above
The class given is physicochemical. An excerpt:
The solid, preferably crystalline, particles obtainable by a process as described above advantageously have a high purity and, furthermore, a narrow particle size range, such as were not obtainable by prior art processes. The span, defined as (d90-d10)/d50, wherein d50, d10, and d90 can be understood to mean that 50%, 10%, and 90%, respectively, of the particles having a particle size smaller than or equal to the indicated value as determined by conventional laser diffraction technique, can even be below 1.4, which is exceptional for a solidification process such as a crystallisation process. In general, for the process according to the present invention the span preferably is below 3. More preferably, the span is below 2.5, and most preferably below 2.
The following procedure was applied for the production of sodium chloride crystals using the antisolvent crystallisation process according to the present invention. All experiments were performed at ambient conditions. The resulting crystals were analysed by SEM (Scanning Electron Microscopy) and CSD (Crystal Size Distribution) measurements by means of laser diffraction using a Mastersizer 2000 apparatus of Malvern Instruments with a Fraunhofer model for data analysis.
The following procedure was applied for the production of 3-ketodesogestrel using the antisolvent crystallisation of the present invention. All experiments were performed at ambient conditions. The resulting crystals were analysed using CSD measurements that were measured via conventional laser diffraction technique.
A 3-ketodesogestrel solution was prepared of 97 g 3-ketodesogestrel in 5 l of ethanol. Water was used as antisolvent. For dosing, a Microdyn® type SE020TP1N membrane with an average pore size of 1 μm was used. The 3-ketodesogestrel solution was dosed from the outside of the membrane to the antisolvent on the inside of the membrane. The speed of the antisolvent was set to 45 l/hr. The speed of the 3-ketodesogestrel flow was set to 0.41 l/hr. Again, a gear pump was used to control the velocities. The crystals thus obtained were collected using filtration, washed with 100% ethanol, and subsequently dried in an oven. […] The span was determined to be 1.7. Herein d50, d10; and d90 can be understood to mean that 50%, 10%, and 90%, respectively, of the particles have a particle size smaller than or equal to the indicated value.
The following procedure was applied for the production of progesteron. All experiments were performed at ambient conditions. The resulting crystals were analysed by CSD measurements by means of laser diffraction using a Mastersizer 2000 apparatus of Malvern Instruments with a Fraunhofer model for data analysis.
This is another data set of the same source.

Where [3] appears, read: Entry 1, antisolvent flow 45 l/h, 3-ketodesogestrel flow 0.7 l/h, Microdyn membrane pore size 1 μm.
Where [4] appears, read: Entry 2, antisolvent flow 45 l/h, 3-ketodesogestrel flow 0.4 l/h, Microdyn membrane pore size 1 μm.
[5] abbreviates: Entry 3, antisolvent flow 45 l/h, 3-ketodesogestrel flow 6.2 l/h, Microdyn membrane pore size 1 μm.
Setting [6] is: Entry 4, antisolvent flow 90 l/h, 3-ketodesogestrel flow 0.7 l/h, Microdyn membrane pore size 1 μm.
Where [7] appears, read: Entry 5, antisolvent flow 90 l/h, 3-ketodesogestrel flow 5.0 l/h, Microdyn membrane pore size 1 μm.
[8] abbreviates: Entry 6, antisolvent flow 45 l/h, 3-ketodesogestrel flow 10 l/h, Microdyn membrane pore size 1 μm.
Where [9] appears, read: Entry 7, antisolvent flow 45 l/h, 3-ketodesogestrel flow 42 l/h, Microdyn membrane pore size 1 μm.
[10] abbreviates: Entry 8, antisolvent flow 45 l/h, 3-ketodesogestrel flow 20 l/h, Microdyn membrane pore size 1 μm.
Where [11] appears, read: Example 2, 97 g in 5 l ethanol, flow 0.41 l/hr, water antisolvent 45 l/hr, Microdyn membrane 1 μm.
The mark [12] stands for this setting: Entry 1, antisolvent 100 wt % water, 0 wt % ethanol, 45 l/h, progesteron solution 50 g per litre ethanol, 12 l/h, Microdyn membrane 1 μm.
[13] abbreviates: Entry 2, antisolvent 85 wt % water, 15 wt % ethanol, 45 l/h, progesteron solution 50 g per litre ethanol, 12 l/h, Microdyn membrane 1 μm.
The mark [14] stands for this setting: Entry 3, antisolvent 70 wt % water, 30 wt % ethanol, 45 l/h, progesteron solution 50 g per litre ethanol, 12 l/h, Microdyn membrane 1 μm.
The mark [15] stands for this setting: Example 5, 34 mg tibolone in 1 kg ethanol, 65 l/hr, antisolvent 90 wt % water/10 wt % ethanol, 151/hr, SPG membrane 1.1 μm.
The mark [16] stands for this setting: Example 1, 25 wt % NaCl solution 60 l/hr into ethanol antisolvent 50 l/hr, SPG membrane pore-size 1.1 μm.

For `C#C[C@]1(O)CC[C@H]2[C@@H]3CCC4=CC(=O)CC[C@@H]4[C@H]3C(=C)C[C@@]21CC` [3-ketodesogestrel, (17alfa)-17-hydroxy-13-ethyl-11-methylene-18,19-dinorpregn-4-en-20-yn-3-one], the Span was determined as 1.6 in series [1] (setting [3]); 1.7 in series [1] (setting [4]); 2.5 in series [1] (setting [5]); 1.9 in series [1] (setting [6]); 2.9 in series [1] (setting [7]); 2.8 in series [1] (setting [8]). The Span in series [1] (setting [9]) is 1.9; in series [1] (setting [10]), 3; in series [2] (setting [11]), 1.7. The d10 in series [1] (setting [3]) was determined as 3 µm; in series [1] (setting [4]) it was 3 µm; in series [1] (setting [5]), 5 µm; in series [1] (setting [6]), 4 µm; in series [1] (setting [7]), 2 µm; in series [1] (setting [8]) it was 2 µm. Besides, the results for the d10 in series [1] (setting [9]), in series [1] (setting [10]) and in series [2] (setting [11]) were 12 µm, 2 µm and 3 μm, respectively. The d50 in series [1] (setting [3]) turned out to be 11 µm; in series [1] (setting [5]) it was 16 µm; in series [1] (setting [6]), 10 µm; in series [1] (setting [7]) it was 7 µm; in series [1] (setting [8]), 8 µm; in series [1] (setting [9]), 42 µm. For the same compound, the d50 stood at 9 µm in series [1] (setting [10]), 10 µm in series [2] (setting [4]) and 10 μm in series [2] (setting [11]). For the same compound, the d90 in series [1] (setting [3]) is 21 µm; in series [1] (setting [4]), 20 µm; in series [1] (setting [5]), 45 µm; in series [1] (setting [6]), 23 µm; in series [1] (setting [7]) it was 22 µm; in series [1] (setting [8]), 24 µm. In addition, the d90 in series [1] (setting [9]) came out at 90 µm; in series [1] (setting [10]), 29 µm; in series [1] (setting [11]), 20 μm.
As to `CC(=O)[C@H]1CC[C@H]2[C@@H]3CCC4=CC(=O)CC[C@]4(C)[C@H]3CC[C@]12C` [progesteron, pregn-4-ene-3,20-dione], the Span is reported as 2 in series [1] (setting [12]), 1.8 in series [1] (setting [13]) and 1.7 in series [2] (setting [14]). In addition, the “d10” value in series [1] (setting [12]) amounted to 2; in series [1] (setting [14]) it was 7; in series [2] (setting [13]) it was 4. In addition, the figures for the “d50” value in series [1] (setting [12]), in series [1] (setting [13]) and in series [1] (setting [14]) were 7, 12 and 21, respectively. The “d90” value in series [1] (setting [14]) came out at 43; in series [2] (setting [12]), 16; in series [2] (setting [13]) it was 25. The “span, in words” value in series [2] (all antisolvent compositions of Table 2) is reported as “surprisingly small span”.
In series [1] (setting [15]), `C#CC1(O)CCC2C3C(CCC21C)C1=C(CC(=O)CC1)C[C@H]3C` (stereo partly shown) [tibolone, (7alfa, 17alfa)-17-hydroxy-7-methyl-19-nor-pregn-5(10)-en-20-yn-3-one] came in with a d10 of 3.8 μm and a d50 of 18.2 μm. Further, in series [2] (setting [15]), the d90 was found to be 51.3 μm.
`[Cl-].[Na+]` [sodium chloride]: the Span in series [1] (setting [16]) is listed as 1.5; in series [2] (Example 1 additional experiment, stirring rod 630 rpm inside membrane, salt solution 40 l/hr, ethanol 50 l/hr) it was 1.2. Further, the “average crystal size d50” value in series [2] (setting [16]) is 40 μm.
